# Data reported in patent publication US20260355196A1, “INHIBITORS AND DEGRADERS OF PIP4K PROTEIN” (Larkspur Biosciences, Inc., priority 2023, published 2026).
# Target: T1, PIP4K2C (Homo sapiens, UniProt Q8TBX8)
# T1 sequence (Q8TBX8 1-421): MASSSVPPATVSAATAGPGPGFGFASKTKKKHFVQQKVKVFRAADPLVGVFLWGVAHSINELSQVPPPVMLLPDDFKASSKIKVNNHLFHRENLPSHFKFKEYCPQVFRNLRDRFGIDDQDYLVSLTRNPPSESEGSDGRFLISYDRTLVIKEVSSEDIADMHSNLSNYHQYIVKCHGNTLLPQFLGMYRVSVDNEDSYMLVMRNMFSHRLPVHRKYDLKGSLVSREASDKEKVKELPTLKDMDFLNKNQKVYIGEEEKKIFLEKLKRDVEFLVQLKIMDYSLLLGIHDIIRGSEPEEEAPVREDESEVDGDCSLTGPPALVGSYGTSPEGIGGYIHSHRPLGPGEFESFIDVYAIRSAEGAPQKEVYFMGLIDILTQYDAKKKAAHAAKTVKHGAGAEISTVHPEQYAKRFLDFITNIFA
# Experiment: HiBiT PIP4K2C degradation assay in MOLT-4 cells (endogenous PIP4K2C C-terminally tagged with HiBiT)
# Format: cell-based
# Design: untagged in primary human PBMCs and monocyte-derived dendritic cells
# Details: 6 hours of incubation time, rather than 24 hours; MOLT-4, top concentration 10 micromolar; read-out: HiBIT-degradation MOLT4 PIP4k2C DC50 (6 hours, marked *)
# Procedure, shortened: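 Luminescent HiBiT lytic readout of residual PIP4K2C-HiBiT (CRISPR knock-in, MOLT-4, phenol red-free RPMI-1640 + 10% FBS). Cells exposed 6 or 24 h at 37 C to compound, top 10 micromolar, 3-fold, 10 points, duplicate. Hill fit (Levenberg-Marquardt) gives DC50.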
row,Structure (SMILES),DC50
1,"O=C1CCC(Nc2ccc(C3CCN(CC4CCN(C(=O)[C@H]5CC[C@H](Nc6ncc(F)c(-c7cccc(-c8ccc[nH]c8=O)c7)n6)CC5)CC4)CC3)c(F)c2)C(=O)N1 (stereo partly drawn) [Compound 384, trans-3-((3-fluoro-4-(1-((1-(4-((5-fluoro-4-(3-(2-oxo-1,2-dihydropyridin-3-yl)phenyl)pyrimidin-2-yl)amino)cyclohexane-1-carbonyl)piperidin-4-yl)methyl)piperidin-4-yl)phenyl)amino)piperidine-2,6-dione]",< 500 nM
2,"Cn1nc(C2CCC(=O)NC2=O)c2ccc(N3CCN([C@H]4CC[C@H](C(=O)N[C@H]5CC[C@H](Nc6ncc(F)c(-c7cccc(-c8ccc[nH]c8=O)c7)n6)CC5)CC4)CC3)cc21 (stereo partly drawn) [Compound 389, trans-(1r,4R)-4-(4-(3-(2,6-dioxopiperidin-3-yl)-1-methyl-1H-indazol-6-yl)piperazin-1-yl)-N-((1r,4R)-4-((5-fluoro-4-(3-(2-oxo-1,2-dihydropyridin-3-yl)phenyl)pyrimidin-2-yl)amino)cyclohexyl)cyclohexane-1-carboxamide]",< 500 nM
3,"Cn1nc(C2CCC(=O)NC2=O)c2ccc(C3CCN(CC4CCN(C(=O)[C@H]5CC[C@H](Nc6ncc(F)c(-c7cccc(-c8ccc[nH]c8=O)c7)n6)CC5)CC4)CC3)cc21 (stereo partly drawn) [Compound 391, trans-3-(6-(1-((1-(4-((5-fluoro-4-(3-(2-oxo-1,2-dihydropyridin-3-yl)phenyl)pyrimidin-2-yl)amino)cyclohexane-1-carbonyl)piperidin-4-yl)methyl)piperidin-4-yl)-1-methyl-1H-indazol-3-yl)piperidine-2,6-dione]",< 500 nM
4,"O=C1CCC(Nc2ccc(C3CCN(CC4CCN(C(=O)[C@H]5CC[C@H](Nc6ncc(F)c(-c7cccc(N8CCCCC8=O)c7)n6)CC5)CC4)CC3)c(F)c2)C(=O)N1 (stereo partly drawn) [Compound 394, trans-3-((3-fluoro-4-(1-((1-(4-((5-fluoro-4-(3-(2-oxopiperidin-1-yl)phenyl)pyrimidin-2-yl)amino)cyclohexane-1-carbonyl)piperidin-4-yl)methyl)piperidin-4-yl)phenyl)amino)piperidine-2,6-dione]",< 500 nM
5,"O=C1CCC(n2c(=O)oc3cc(N4CCN(CC5CCN(C(=O)[C@H]6CC[C@H](Nc7ncc(F)c(-c8cccc(-n9ccccc9=O)c8)n7)CC6)CC5)CC4)ccc32)C(=O)N1 (stereo partly drawn) [Compound 397, trans-3-(6-(4-((1-(4-((5-fluoro-4-(3-(2-oxopyridin-1(2H)-yl)phenyl)pyrimidin-2-yl)amino)cyclohexane-1-carbonyl)piperidin-4-yl)methyl)piperazin-1-yl)-2-oxobenzo[d]oxazol-3 (2H)-yl)piperidine-2,6-dione]",< 500 nM
6,"O=C1CCC(n2c(=O)oc3cc(N4CCN(CC5CCN(C(=O)[C@H]6CC[C@H](Nc7ncc(F)c(-c8cccc(-c9ccc[nH]c9=O)c8)n7)CC6)CC5)CC4)ccc32)C(=O)N1 (stereo partly drawn) [Compound 398, trans-3-(6-(4-((1-(4-((5-fluoro-4-(3-(2-oxo-1,2-dihydropyridin-3-yl)phenyl)pyrimidin-2-yl)amino)cyclohexane-1-carbonyl)piperidin-4-yl)methyl)piperazin-1-yl)-2-oxobenzo[d]oxazol-3 (2H)-yl)piperidine-2,6-dione]",< 500 nM
7,"Cn1nc(C2CCC(=O)NC2=O)c2ccc(N3CCN(CC4CCN(C(=O)[C@H]5CC[C@H](Nc6ncc(F)c(-c7cccc(-n8ccccc8=O)c7)n6)CC5)CC4)CC3)cc21 (stereo partly drawn) [Compound 399, 3-(6-(4-((1-(trans-4-((5-fluoro-4-(3-(2-oxopyridin-1(2H)-yl)phenyl)pyrimidin-2-yl)amino)cyclohexane-1-carbonyl)piperidin-4-yl)methyl)piperazin-1-yl)-1-methyl-1H-indazol-3-yl)piperidine-2,6-dione]",< 500 nM

# Other lines, results leading:
row,DC50,Structure (SMILES)
1,< 500 nM,"O=C1CCC(Nc2ccc(N3CCN([C@H]4CC[C@H](NC(=O)[C@H]5CC[C@H](Nc6ncc(F)c(-c7cccc(-c8ccc[nH]c8=O)c7)n6)CC5)CC4)CC3)c(F)c2)C(=O)N1 (stereo partly drawn) [Compound 382, trans-N-(trans-4-(4-(4-((2,6-dioxopiperidin-3-yl)amino)-2-fluorophenyl)piperazin-1-yl)cyclohexyl)-4-((5-fluoro-4-(3-(2-oxo-1,2-dihydropyridin-3-yl)phenyl)pyrimidin-2-yl)amino)cyclohexane-1-carboxamide]"
2,< 500 nM,"Cn1nc(C2CCC(=O)NC2=O)c2ccc(N3CCN([C@H]4CC[C@H](NC(=O)[C@H]5CC[C@H](Nc6ncc(F)c(-c7cccc(-n8ccccc8=O)c7)n6)CC5)CC4)CC3)cc21 (stereo partly drawn) [Compound 383, trans-N-(trans-4-(4-(3-(2,6-dioxopiperidin-3-yl)-1-methyl-1H-indazol-6-yl)piperazin-1-yl)cyclohexyl)-4-((5-fluoro-4-(3-(2-oxopyridin-1(2H)-yl)phenyl)pyrimidin-2-yl)amino)cyclohexane-1-carboxamide]"
3,< 500 nM,"Cn1nc(C2CCC(=O)NC2=O)c2ccc(C3CCN(CC4CCN(C(=O)[C@H]5CC[C@H](Nc6ncc(F)c(-c7cccc(-n8ccccc8=O)c7)n6)CC5)CC4)CC3)cc21 (stereo partly drawn) [Compound 385, trans-3-(6-(1-((1-(4-((5-fluoro-4-(3-(2-oxopyridin-1(2H)-yl)phenyl)pyrimidin-2-yl)amino)cyclohexane-1-carbonyl)piperidin-4-yl)methyl)piperidin-4-yl)-1-methyl-1H-indazol-3-yl)piperidine-2,6-dione]"
4,< 500 nM,"O=C1CCC(Nc2ccc(N3CCC(CN4CCN(C(=O)[C@H]5CC[C@H](Nc6ncc(F)c(-c7cccc(-n8ccccc8=O)c7)n6)CC5)CC4)CC3)c(F)c2)C(=O)N1 (stereo partly drawn) [Compound 387, trans-3-((3-fluoro-4-(4-((4-(4-((5-fluoro-4-(3-(2-oxopyridin-1(2H)-yl)phenyl)pyrimidin-2-yl)amino)cyclohexane-1-carbonyl)piperazin-1-yl)methyl)piperidin-1-yl)phenyl)amino)piperidine-2,6-dione]"
5,< 500 nM,"Cn1nc(C2CCC(=O)NC2=O)c2ccc(N3CCN([C@H]4CC[C@H](C(=O)N[C@H]5CC[C@H](Nc6ncc(F)c(-c7cccc(-n8ccccc8=O)c7)n6)CC5)CC4)CC3)cc21 (stereo partly drawn) [Compound 388, trans-4-(4-(3-(2,6-dioxopiperidin-3-yl)-1-methyl-1H-indazol-6-yl)piperazin-1-yl)-N-(trans-4-((5-fluoro-4-(3-(2-oxopyridin-1(2H)-yl)phenyl)pyrimidin-2-yl)amino)cyclohexyl)cyclohexane-1-carboxamide]"
6,< 500 nM,"O=C1CCC(Nc2ccc(C3CCN(CC4CCN(C(=O)[C@H]5CC[C@H](Nc6ncc(F)c(-c7cccc(-n8ccccc8=O)c7)n6)CC5)CC4)CC3(F)F)c(F)c2)C(=O)N1 (stereo partly drawn) [Compound 390, trans-3-[4-[3,3-difluoro-1-[[1-[4-[[5-fluoro-4-[3-(2-oxo-1-pyridyl)phenyl]pyrimidin-2-yl]amino]cyclohexanecarbonyl]-4-piperidyl]methyl]-4-piperidyl]-3-fluoro-anilino]piperidine-2,6-dione]"
7,< 500 nM,"O=C1CCC(Nc2ccc(N3CCN(CC4(O)CCN(C(=O)[C@H]5CC[C@H](Nc6ncc(F)c(-c7cccc(-n8ccccc8=O)c7)n6)CC5)CC4)CC3)c(F)c2)C(=O)N1 (stereo partly drawn) [Compound 392, trans-3-((3-fluoro-4-(4-((1-(4-((5-fluoro-4-(3-(2-oxopyridin-1(2H)-yl)phenyl)pyrimidin-2-yl)amino)cyclohexane-1-carbonyl)-4-hydroxypiperidin-4-yl)methyl)piperazin-1-yl)phenyl)amino)piperidine-2,6-dione]"
8,< 500 nM,"O=C1CCC(Nc2ccc(N3CCN(CC4CCN(C(=O)[C@H]5CC[C@H](Nc6ncc(F)c(-c7cccc(N8CCCCC8=O)c7)n6)CC5)CC4)CC3)c(F)c2)C(=O)N1 (stereo partly drawn) [Compound 393, trans-3-[3-fluoro-4-[4-[[1-[4-[[5-fluoro-4-[3-(2-oxo-1-piperidyl)phenyl]pyrimidin-2-yl]amino]cyclohexanecarbonyl]-4-piperidyl]methyl]piperazin-1-yl]anilino]piperidine-2,6-dione]"
9,< 500 nM,"O=C1CCC(Nc2ccc(N3CCC(N4CCC(CC(=O)N[C@H]5CC[C@H](Nc6ncc(F)c(-c7cccc(-n8ccccc8=O)c7)n6)CC5)CC4)CC3)c(F)c2)C(=O)N1 (stereo partly drawn) [Compound 395, trans-2-(1′-(4-((2,6-dioxopiperidin-3-yl)amino)-2-fluorophenyl)-[1,4′-bipiperidin]-4-yl)-N-((1r,4r)-4-((5-fluoro-4-(3-(2-oxopyridin-1(2H)-yl)phenyl)pyrimidin-2-yl)amino)cyclohexyl)acetamide]"
10,< 500 nM,"O=C1CCC(Nc2ccc(C3CCN([C@H]4CC[C@H](C(=O)N[C@H]5CC[C@H](Nc6ncc(F)c(-c7cccc(-c8ccc[nH]c8=O)c7)n6)CC5)CC4)CC3)c(F)c2)C(=O)N1 (stereo partly drawn) [Compound 396, trans-4-(4-(4-((2,6-dioxopiperidin-3-yl)amino)-2-fluorophenyl)piperidin-1-yl)-N-(trans-4-((5-fluoro-4-(3-(2-oxo-1,2-dihydropyridin-3-yl)phenyl)pyrimidin-2-yl)amino)cyclohexyl)cyclohexane-1-carboxamide]"
